Target: T1, mAOX2 (Mus musculus, UniProt Q5SGK3)
T1 construct: gene Aox2; recombinant from E. coli TP1000 (codon-optimized plasmid pMAOX2co), Ni-NTA and Superdex 200 purified, chemically sulfurated, dimer (300 kDa)
T1 sequence (Q5SGK3 1-1345): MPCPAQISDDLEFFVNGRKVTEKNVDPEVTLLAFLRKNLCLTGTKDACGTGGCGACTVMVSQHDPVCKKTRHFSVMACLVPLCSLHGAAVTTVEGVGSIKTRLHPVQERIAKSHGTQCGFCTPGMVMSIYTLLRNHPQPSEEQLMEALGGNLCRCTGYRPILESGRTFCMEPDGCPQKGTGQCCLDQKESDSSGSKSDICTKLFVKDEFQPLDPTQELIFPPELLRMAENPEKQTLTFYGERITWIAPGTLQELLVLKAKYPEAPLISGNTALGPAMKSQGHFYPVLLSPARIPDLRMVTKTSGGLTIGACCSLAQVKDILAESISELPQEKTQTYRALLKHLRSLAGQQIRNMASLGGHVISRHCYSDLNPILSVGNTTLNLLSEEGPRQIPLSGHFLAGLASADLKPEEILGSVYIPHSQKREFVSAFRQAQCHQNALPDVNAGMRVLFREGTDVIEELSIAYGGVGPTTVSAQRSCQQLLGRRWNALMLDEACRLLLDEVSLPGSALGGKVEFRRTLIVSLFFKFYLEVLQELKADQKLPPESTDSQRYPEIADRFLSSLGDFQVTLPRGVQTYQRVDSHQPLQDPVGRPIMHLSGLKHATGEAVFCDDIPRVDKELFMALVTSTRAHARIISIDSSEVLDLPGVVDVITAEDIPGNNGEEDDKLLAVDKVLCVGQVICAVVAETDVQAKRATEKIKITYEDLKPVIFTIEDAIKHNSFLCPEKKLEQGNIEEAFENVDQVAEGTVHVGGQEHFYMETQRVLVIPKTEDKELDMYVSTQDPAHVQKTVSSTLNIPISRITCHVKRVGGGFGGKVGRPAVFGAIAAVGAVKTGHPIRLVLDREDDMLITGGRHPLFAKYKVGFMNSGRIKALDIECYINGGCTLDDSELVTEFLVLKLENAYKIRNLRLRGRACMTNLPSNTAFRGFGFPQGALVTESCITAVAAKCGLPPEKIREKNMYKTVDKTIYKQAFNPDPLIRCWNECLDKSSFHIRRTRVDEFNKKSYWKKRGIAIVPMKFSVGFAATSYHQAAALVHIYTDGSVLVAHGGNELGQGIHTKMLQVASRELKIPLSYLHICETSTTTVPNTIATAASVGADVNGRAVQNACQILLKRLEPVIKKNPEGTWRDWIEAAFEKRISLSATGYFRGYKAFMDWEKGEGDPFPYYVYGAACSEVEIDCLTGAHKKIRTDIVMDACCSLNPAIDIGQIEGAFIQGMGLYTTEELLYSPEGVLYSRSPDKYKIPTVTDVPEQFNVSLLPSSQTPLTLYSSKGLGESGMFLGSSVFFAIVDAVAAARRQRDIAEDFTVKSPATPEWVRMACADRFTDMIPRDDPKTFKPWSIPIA
Experiment: DCPIP reduction at […] nm, steady-state kinetics
Type: biochemical
Conditions: 100 μM DCPIP as electron acceptor, 50 mM Tris-HCl, 1 mM EDTA, pH 8.0, 37°C, corrected to 100% Mo saturation

Km [mM] | Km (limit given jointly for mAOX3, mAOX4 and mAOX2) [mM] | Structure (SMILES)
4.4 to 4.6 | – | CC=O [acetaldehyde]
– | < 0.002 | O=Cc1ccc(O)cc1 [4-hydroxybenzaldehyde]
